# Test results as given in the kinase profiling compilation of Christmann-Franck et al. (2016).
# Tests used:
# Test in all cases: radiometric filter-binding kinase assay
# [1] = system: AKT2 (human), P31751 [S474D]
# [2] = molecular target: AURKB (human) (UniProt Q96GD4)
# [3] = molecular target: CAMKK2 (human) (UniProt Q96RR4)
# [4] = molecular target: CHEK1 (human) (UniProt O14757)
# [5] = molecular target: CHEK2 (human) (UniProt O96017)
# [6] = molecular target: EPHB4 (human) (UniProt P54760); details: compound 100.0 µM
# [7] = molecular target: GCK (human) (UniProt Q12851); details: compound 100.0 µM
# [8] = molecular target: IGF1R (human) (UniProt P08069)
# [9] = molecular target: IKBKB (human) (UniProt O14920)
# Sequence of IKBKB (human) (O14920 whole entry, looked up): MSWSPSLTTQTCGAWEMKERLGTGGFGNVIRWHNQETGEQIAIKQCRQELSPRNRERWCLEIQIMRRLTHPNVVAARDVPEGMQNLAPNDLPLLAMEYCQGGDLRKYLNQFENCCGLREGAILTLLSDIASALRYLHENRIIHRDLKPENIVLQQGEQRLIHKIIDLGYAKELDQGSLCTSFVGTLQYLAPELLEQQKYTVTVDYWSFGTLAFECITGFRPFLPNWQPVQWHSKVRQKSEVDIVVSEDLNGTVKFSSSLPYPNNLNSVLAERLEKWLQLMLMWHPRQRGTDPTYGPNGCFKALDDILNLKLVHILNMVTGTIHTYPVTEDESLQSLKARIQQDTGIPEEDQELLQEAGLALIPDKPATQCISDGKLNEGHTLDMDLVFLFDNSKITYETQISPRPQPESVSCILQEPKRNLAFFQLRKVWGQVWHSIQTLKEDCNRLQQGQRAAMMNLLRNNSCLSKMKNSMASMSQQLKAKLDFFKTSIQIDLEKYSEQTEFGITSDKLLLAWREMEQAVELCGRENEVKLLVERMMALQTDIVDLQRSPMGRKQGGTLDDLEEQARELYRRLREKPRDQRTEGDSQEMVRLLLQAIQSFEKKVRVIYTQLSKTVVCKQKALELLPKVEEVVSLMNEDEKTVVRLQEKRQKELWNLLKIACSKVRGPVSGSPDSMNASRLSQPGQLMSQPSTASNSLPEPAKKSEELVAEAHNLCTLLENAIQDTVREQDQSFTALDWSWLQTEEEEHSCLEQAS
# [10] = molecular target: MAP2K1 (human) (UniProt Q02750)
# [11] = molecular target: MAP3K1 (human) (UniProt Q13233); details: compound 100.0 µM
# [12] = molecular target: MAP3K5 (human) (UniProt Q99683)
# [13] = molecular target: MAPK1 (human) (UniProt P28482)
# [14] = molecular target: MAPK10 (human) (UniProt P53779)
# [15] = molecular target: MAPK15 (human) (UniProt Q8TD08)
# [16] = molecular target: MAPK3 (human) (UniProt P27361)
# [17] = molecular target: MAPK9 (human) (UniProt P45984)
# Sequence of MAPK9 (human) (P45984 whole entry, looked up): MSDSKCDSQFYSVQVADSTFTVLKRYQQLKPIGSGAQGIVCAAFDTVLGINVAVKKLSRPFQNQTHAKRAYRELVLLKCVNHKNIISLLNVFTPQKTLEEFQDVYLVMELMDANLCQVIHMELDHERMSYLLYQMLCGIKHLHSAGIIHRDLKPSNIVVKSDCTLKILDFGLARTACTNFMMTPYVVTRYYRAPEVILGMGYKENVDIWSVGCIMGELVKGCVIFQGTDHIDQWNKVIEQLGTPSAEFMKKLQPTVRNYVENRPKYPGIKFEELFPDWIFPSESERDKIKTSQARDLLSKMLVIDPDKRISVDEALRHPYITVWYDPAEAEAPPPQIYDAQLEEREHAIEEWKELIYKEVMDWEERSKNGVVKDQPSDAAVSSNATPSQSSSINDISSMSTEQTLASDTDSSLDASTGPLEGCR
# [18] = molecular target: MAPKAPK2 (human) (UniProt P49137)
# Sequence of MAPKAPK2 (human) (P49137 whole entry, looked up): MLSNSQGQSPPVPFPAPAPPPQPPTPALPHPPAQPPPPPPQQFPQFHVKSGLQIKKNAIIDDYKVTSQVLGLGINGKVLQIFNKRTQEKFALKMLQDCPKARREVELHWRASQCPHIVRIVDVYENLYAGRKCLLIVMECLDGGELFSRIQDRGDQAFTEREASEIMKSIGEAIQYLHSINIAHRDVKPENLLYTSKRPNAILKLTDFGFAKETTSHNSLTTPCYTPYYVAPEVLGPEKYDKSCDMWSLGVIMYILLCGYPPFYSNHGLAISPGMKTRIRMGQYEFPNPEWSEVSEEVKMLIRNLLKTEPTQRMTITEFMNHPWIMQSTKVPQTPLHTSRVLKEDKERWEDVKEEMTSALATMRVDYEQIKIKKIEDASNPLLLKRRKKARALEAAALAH
# [19] = molecular target: MARK2 (human) (UniProt Q7KZI7)
# [20] = molecular target: MKNK1 (human) (UniProt Q9BUB5)
# Sequence of MKNK1 (human) (Q9BUB5 whole entry, looked up): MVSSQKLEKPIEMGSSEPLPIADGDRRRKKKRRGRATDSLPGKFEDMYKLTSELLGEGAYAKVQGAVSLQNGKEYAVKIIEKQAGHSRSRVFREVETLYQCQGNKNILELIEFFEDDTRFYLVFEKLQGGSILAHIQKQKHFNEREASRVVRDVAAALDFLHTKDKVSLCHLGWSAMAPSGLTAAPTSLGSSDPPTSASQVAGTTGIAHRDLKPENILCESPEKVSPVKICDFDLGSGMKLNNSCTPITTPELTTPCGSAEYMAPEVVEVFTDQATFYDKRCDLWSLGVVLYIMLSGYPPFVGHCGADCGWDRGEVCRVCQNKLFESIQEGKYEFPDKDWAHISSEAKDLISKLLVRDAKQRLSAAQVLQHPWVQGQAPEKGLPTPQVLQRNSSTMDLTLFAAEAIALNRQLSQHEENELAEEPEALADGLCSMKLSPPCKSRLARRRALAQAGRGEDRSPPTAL
# [21] = molecular target: MKNK2 (human) (UniProt Q9HBH9)
# [22] = molecular target: NEK2 (human) (UniProt P51955)
# Sequence of NEK2 (human) (P51955 whole entry, looked up): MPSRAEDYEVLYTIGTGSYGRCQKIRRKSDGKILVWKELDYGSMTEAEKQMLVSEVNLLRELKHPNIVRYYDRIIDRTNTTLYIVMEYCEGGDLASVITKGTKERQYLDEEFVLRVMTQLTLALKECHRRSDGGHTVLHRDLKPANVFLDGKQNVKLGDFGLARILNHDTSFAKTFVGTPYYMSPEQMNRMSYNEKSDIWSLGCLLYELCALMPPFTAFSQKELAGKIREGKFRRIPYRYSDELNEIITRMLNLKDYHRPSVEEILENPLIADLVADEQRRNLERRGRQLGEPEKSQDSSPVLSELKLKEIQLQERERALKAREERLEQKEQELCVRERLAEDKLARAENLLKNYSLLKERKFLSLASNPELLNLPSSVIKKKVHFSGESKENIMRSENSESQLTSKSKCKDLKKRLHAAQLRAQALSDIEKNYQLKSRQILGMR
# [23] = molecular target: NTRK1 (human) (UniProt P04629)
# [24] = molecular target: PIM2 (human) (UniProt Q9P1W9)
# Sequence of PIM2 (human) (Q9P1W9 whole entry, looked up): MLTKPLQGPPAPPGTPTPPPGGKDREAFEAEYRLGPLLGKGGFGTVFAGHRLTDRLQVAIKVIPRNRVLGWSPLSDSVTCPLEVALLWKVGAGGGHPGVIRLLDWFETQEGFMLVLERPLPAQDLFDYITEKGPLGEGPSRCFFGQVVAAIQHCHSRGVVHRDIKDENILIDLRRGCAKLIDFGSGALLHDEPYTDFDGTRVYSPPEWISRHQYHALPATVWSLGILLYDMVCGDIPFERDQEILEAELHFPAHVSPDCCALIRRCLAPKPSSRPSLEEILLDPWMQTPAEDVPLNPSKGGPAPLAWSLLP
# [25] = molecular target: PKN2 (human) (UniProt Q16513)
# [26] = system: PRKAA1 or PRKAA2 (rat); details: accession and sequence are those of the human protein
# [27] = molecular target: PRKACA (human) (UniProt P17612)
# [28] = molecular target: PRKCA (human) (UniProt P17252)
# [29] = molecular target: RPS6KA1 KD1 KD2 (human) (UniProt Q15418)
# Sequence of RPS6KA1 KD1 KD2 (human) (Q15418 whole entry, looked up): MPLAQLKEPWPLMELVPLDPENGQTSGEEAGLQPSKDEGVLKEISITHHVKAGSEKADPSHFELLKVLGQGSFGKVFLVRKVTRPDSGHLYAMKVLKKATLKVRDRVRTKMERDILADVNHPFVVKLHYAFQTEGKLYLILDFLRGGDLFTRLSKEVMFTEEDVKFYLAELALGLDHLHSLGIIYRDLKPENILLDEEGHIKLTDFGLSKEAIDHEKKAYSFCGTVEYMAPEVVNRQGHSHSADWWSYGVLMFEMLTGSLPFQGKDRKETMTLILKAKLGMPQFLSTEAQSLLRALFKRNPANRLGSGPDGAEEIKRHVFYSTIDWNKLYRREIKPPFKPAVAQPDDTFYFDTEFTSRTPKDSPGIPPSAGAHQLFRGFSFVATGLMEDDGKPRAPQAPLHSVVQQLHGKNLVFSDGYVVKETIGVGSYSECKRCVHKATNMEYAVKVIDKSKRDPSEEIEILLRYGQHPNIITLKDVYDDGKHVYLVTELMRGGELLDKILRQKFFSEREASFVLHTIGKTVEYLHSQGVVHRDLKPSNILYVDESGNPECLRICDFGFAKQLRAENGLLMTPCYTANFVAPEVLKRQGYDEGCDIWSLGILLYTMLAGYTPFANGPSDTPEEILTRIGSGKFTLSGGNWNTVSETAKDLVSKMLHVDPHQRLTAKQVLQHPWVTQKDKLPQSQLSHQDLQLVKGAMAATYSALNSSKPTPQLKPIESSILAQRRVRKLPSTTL
# [30] = molecular target: SRC (human) (UniProt P12931)
# [31] = molecular target: STK11 CAB39 STRADA (human) (UniProt Q9Y376+Q7RTN6+Q15831)
# [32] = molecular target: YES1 (human) (UniProt P07947)
# Sequence of YES1 (human) (P07947 whole entry, looked up): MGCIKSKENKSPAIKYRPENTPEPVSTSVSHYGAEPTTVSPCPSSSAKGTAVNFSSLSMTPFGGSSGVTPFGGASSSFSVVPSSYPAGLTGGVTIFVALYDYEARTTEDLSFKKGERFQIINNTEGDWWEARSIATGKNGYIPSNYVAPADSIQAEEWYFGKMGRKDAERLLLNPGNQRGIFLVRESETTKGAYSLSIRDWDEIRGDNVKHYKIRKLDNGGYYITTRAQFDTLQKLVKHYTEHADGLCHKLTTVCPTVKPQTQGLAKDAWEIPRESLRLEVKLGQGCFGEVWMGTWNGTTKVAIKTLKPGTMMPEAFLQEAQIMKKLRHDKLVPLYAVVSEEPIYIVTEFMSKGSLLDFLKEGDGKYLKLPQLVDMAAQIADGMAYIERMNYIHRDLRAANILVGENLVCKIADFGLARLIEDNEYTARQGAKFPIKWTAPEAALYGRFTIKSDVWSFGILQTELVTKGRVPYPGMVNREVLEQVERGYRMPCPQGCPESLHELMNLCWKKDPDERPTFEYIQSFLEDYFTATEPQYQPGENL
compound,measurement,setting,value
COC(=O)/C=C/C(=O)OC,residual activity,[1]; compound 10.0 µM,81%
same,residual activity,[1]; compound 100.0 µM,93%
same,residual activity,[1]; compound 1000.0 µM,106%
same,residual activity,[2]; compound 10.0 µM,90%
same,residual activity,[2]; compound 100.0 µM,102%
same,residual activity,[2]; compound 1000.0 µM,98%
same,residual activity,[3]; compound 100.0 µM,101%
same,residual activity,[3]; compound 1000.0 µM,93%
same,residual activity,[4]; compound 100.0 µM,93%
same,residual activity,[4]; compound 1000.0 µM,97%
same,residual activity,[5]; compound 10.0 µM,90%
same,residual activity,[5]; compound 100.0 µM,98%
same,residual activity,[5]; compound 1000.0 µM,100%
same,residual activity,[6],122%
same,residual activity,[7],107%
same,residual activity,[8]; compound 100.0 µM,92%
same,residual activity,[8]; compound 1000.0 µM,117%
same,residual activity,[9]; compound 10.0 µM,84%
same,residual activity,[9]; compound 100.0 µM,91%
same,residual activity,[9]; compound 1000.0 µM,85%
same,residual activity,[10]; compound 100.0 µM,109%
same,residual activity,[10]; compound 1000.0 µM,118%
same,residual activity,[11],95%
same,residual activity,[12]; compound 10.0 µM,93%
same,residual activity,[12]; compound 100.0 µM,88%
same,residual activity,[12]; compound 1000.0 µM,105%
same,residual activity,[13]; compound 10.0 µM,85%
same,residual activity,[13]; compound 1000.0 µM,105%
same,residual activity,[14]; compound 10.0 µM,103%
same,residual activity,[14]; compound 100.0 µM,103%
same,residual activity,[14]; compound 1000.0 µM,100%
same,residual activity,[15]; compound 10.0 µM,89%
same,residual activity,[15]; compound 100.0 µM,100%
same,residual activity,[15]; compound 1000.0 µM,96%
same,residual activity,[16]; compound 10.0 µM,95%
same,residual activity,[16]; compound 100.0 µM,99%
same,residual activity,[16]; compound 1000.0 µM,100%
same,residual activity,[17]; compound 10.0 µM,90%
same,residual activity,[17]; compound 100.0 µM,94%
same,residual activity,[17]; compound 1000.0 µM,101%
same,residual activity,[18]; compound 10.0 µM,92%
same,residual activity,[18]; compound 100.0 µM,86%
same,residual activity,[18]; compound 1000.0 µM,93%
same,residual activity,[19]; compound 10.0 µM,91%
same,residual activity,[19]; compound 100.0 µM,108%
same,residual activity,[20]; compound 10.0 µM,101%
same,residual activity,[20]; compound 100.0 µM,103%
same,residual activity,[20]; compound 1000.0 µM,105%
same,residual activity,[21]; compound 10.0 µM,101%
same,residual activity,[21]; compound 100.0 µM,107%
same,residual activity,[21]; compound 1000.0 µM,110%
same,residual activity,[22]; compound 10.0 µM,100%
same,residual activity,[22]; compound 100.0 µM,100%
same,residual activity,[22]; compound 1000.0 µM,102%
same,residual activity,[23]; compound 10.0 µM,88%
same,residual activity,[23]; compound 100.0 µM,96%
same,residual activity,[23]; compound 1000.0 µM,83%
same,residual activity,[24]; compound 10.0 µM,117%
same,residual activity,[24]; compound 100.0 µM,109%
same,residual activity,[24]; compound 1000.0 µM,116%
same,residual activity,[25]; compound 100.0 µM,108%
same,residual activity,[25]; compound 1000.0 µM,84%
same,residual activity,[26]; compound 10.0 µM,106%
same,residual activity,[26]; compound 100.0 µM,104%
same,residual activity,[26]; compound 1000.0 µM,109%
same,residual activity,[27]; compound 10.0 µM,92%
same,residual activity,[27]; compound 100.0 µM,96%
same,residual activity,[27]; compound 1000.0 µM,99%
same,residual activity,[28]; compound 10.0 µM,99%
same,residual activity,[28]; compound 100.0 µM,101%
same,residual activity,[28]; compound 1000.0 µM,105%
same,residual activity,[29]; compound 10.0 µM,91%
same,residual activity,[29]; compound 100.0 µM,92%
same,residual activity,[29]; compound 1000.0 µM,90%
same,residual activity,[30]; compound 100.0 µM,104%
same,residual activity,[30]; compound 1000.0 µM,103%
same,residual activity,[31]; compound 10.0 µM,93%
same,residual activity,[31]; compound 100.0 µM,97%
same,residual activity,[31]; compound 1000.0 µM,100%
same,residual activity,[32]; compound 10.0 µM,114%
same,residual activity,[32]; compound 100.0 µM,116%
same,residual activity,[32]; compound 1000.0 µM,118%
